According to patent publication US20090233937A1 (TAKEDA PHARMACEUTICAL COMPANY LIMITED, priority 2008, published 2009):

tested on: human breast cancer cell BT-474; experiment: Inhibitory action on breast cancer cell BT-474 proliferation in vitro; assay type: cell-based; details: 120 h, BT-474 cells, cultured for 5 days with compound, SRB dye protein content
Method: A suspension of human breast cancer cell BT-474 (100 μl (6,000 cells)) were plated in a 96-well microplate and cultured in an incubator (37° C., 5% carbon dioxide). On the following day, 100 μl of a solution of each test compound previously diluted serially in 2-fold, was added, and the cells were cultured for 5 days. After the culture medium containing the test compound was removed, the cells were washed and fixed with 50% trichloroacetic acid, after which a 0.4% (w/v) SRB dye solution (dissolved in 1% acetic acid) was added to stain as well as fix the cell protein (Skehan et al., Journal of the National Cancer Institute, Vol. 82, pp. 1107-1112, 1990). After washing with a 1% acetic acid solution, 100 μl of extract solution (10 mM, Tris buffer) was added to extract the dye and the absorbance was measured at a wavelength of 550 nm to quantify the amount of cells as protein content.

| IC50 | Compound |
| --- | --- |
| < 100 nM | CC(C)NC(=O)NCCn1ccc2ncnc(Nc3ccc(Oc4cccc5sncc45)c(Cl)c3)c21 [Example 54, 1-[2-(4-{[4-(1,2-benzoisothiazol-4-yloxy)-3-chlorophenyl]amino}-5H-pyrrolo[3,2-d]pyrimidin-5-yl)ethyl]-3-(1-methylethyl)urea methanesulfonate] |
| < 100 nM | Cc1cc(Nc2ncnc3ccn(CCNC(=O)C(C)(C)CO)c23)ccc1Oc1cccc2sncc12 [Example 39, N-[2-(4-{[4-(1,2-benzoisothiazol-4-yloxy)-3-methylphenyl]amino}-5H-pyrrolo[3,2-d]pyrimidin-5-yl)ethyl]-3-hydroxy-2,2-dimethylpropanamide] |
| < 100 nM | OCCn1ccc2ncnc(Nc3ccc(Oc4cccc5sncc45)c(Cl)c3)c21 [Example 3, 2-(4-{[4-(1,2-benzoisothiazol-4-yloxy)-3-chlorophenyl]amino}-5H-pyrrolo[3,2-d]pyrimidin-5-yl)ethanol] |
| < 100 nM | CC(C)(CO)C(=O)NCCn1ccc2ncnc(Nc3ccc(Oc4cccc5sncc45)c(F)c3)c21 [Example 11, N-[2-(4-{[4-(1,2-benzoisothiazol-4-yloxy)-3-fluorophenyl]amino}-5H-pyrrolo[3,2-d]pyrimidin-5-yl)ethyl]-3-hydroxy-2,2-dimethylpropanamide] |

| Compound | IC50 |
| --- | --- |
| CC(=O)NCCn1ccc2ncnc(Nc3ccc(Oc4cccc5sncc45)c(Cl)c3)c21 [Example 7, N-[2-(4-{[4-(1,2-benzoisothiazol-4-yloxy)-3-chlorophenyl]amino}-5H-pyrrolo[3,2-d]pyrimidin-5-yl)ethyl]acetamide methanesulfonate] | < 100 nM |
| CC(C)(N)C(=O)NCCn1ccc2ncnc(Nc3ccc(Oc4cccc5sncc45)c(Cl)c3)c21 [Example 53, N-[2-(4-{[4-(1,2-benzoisothiazol-4-yloxy)-3-chlorophenyl]amino}-5H-pyrrolo[3,2-d]pyrimidin-5-yl)ethyl]-2-methylalaninamide dimethanesulfonate] | < 100 nM |
